Reference: PubChem BioAssay AID2060511 (Molecular Pharmacology Branch, DTP, NCI, 2025)

Tested on: 422866-222-R5-J1-PDC spheroids with HUVEC/MSC, viability
Assay: Anticancer human tumor 422866-222-R5-J1-PDC patient-derived pancreatic adenocarcinoma cell line growth inhibition [GQUAD]
Settings: for IC50: curve of first compound; for viability, T/C: stronger effect = lower value
Procedure, shortened: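 Multi-cell-type spheroids of tumor cells with HUVEC and mesenchymal stem cells, treated with drug combinations. Concentrations descend in half-log steps from near clinical Cmax, or from 10 microM where Cmax is unknown; viability read-out.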

[1] = second compound 0.0316 µM, first compound 0.0316 µM
[2] = second compound 0.0316 µM, first compound 0.1 µM
[3] = second compound 0.0316 µM, first compound 0.316 µM
[4] = second compound 0.0316 µM, first compound 1 µM
[5] = second compound 0.0316 µM, first compound 3.16 µM
[6] = second compound 0.0316 µM, first compound 10 µM
[7] = second compound 0.1 µM, first compound 0.0316 µM
[8] = second compound 0.1 µM, first compound 0.1 µM
[9] = second compound 0.1 µM, first compound 0.316 µM
[10] = second compound 0.1 µM, first compound 1 µM
[11] = second compound 0.1 µM, first compound 3.16 µM
[12] = second compound 0.1 µM, first compound 10 µM
[13] = second compound 0.316 µM, first compound 0.0316 µM
[14] = second compound 0.316 µM, first compound 0.1 µM
[15] = second compound 0.316 µM, first compound 0.316 µM
[16] = second compound 0.316 µM, first compound 1 µM
[17] = second compound 0.316 µM, first compound 3.16 µM
[18] = second compound 0.316 µM, first compound 10 µM
[19] = second compound 1 µM, first compound 0.0316 µM
[20] = second compound 1 µM, first compound 0.1 µM
[21] = second compound 1 µM, first compound 0.316 µM
[22] = second compound 1 µM, first compound 1 µM
[23] = second compound 1 µM, first compound 3.16 µM
[24] = second compound 1 µM, first compound 10 µM
[25] = second compound 3.16 µM, first compound 0.0316 µM
[26] = second compound 3.16 µM, first compound 0.1 µM
[27] = second compound 3.16 µM, first compound 0.316 µM
[28] = second compound 3.16 µM, first compound 1 µM
[29] = second compound 3.16 µM, first compound 3.16 µM
[30] = second compound 3.16 µM, first compound 10 µM
[31] = second compound 10 µM, first compound 0.0316 µM
[32] = second compound 10 µM, first compound 0.1 µM
[33] = second compound 10 µM, first compound 0.316 µM
[34] = second compound 10 µM, first compound 1 µM
[35] = second compound 10 µM, first compound 3.16 µM
[36] = second compound 10 µM, first compound 10 µM
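Note: spheroids exposed to compounds for seven days before reading.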
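Throughout, for viability, T/C: percent viability relative to DMSO vehicle control taken as 100%.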

**Q.** How did the IC50 (second compound 0.0316 µM) turn out when `CC1COCCN1c1cc(C2(O)CC3CCC(C2)O3)c2cnn(-c3ccn[nH]3)c2n1` (centres undefined) + Cc1[nH]c2ccc(F)cc2c1-c1nc2c3cccnc3c3ncccc3c2[nH]1 was run?
**A.** The IC50 was 0.0316 µM.

**Q.** And the IC50 (second compound 0.1 µM)?
**A.** The IC50 was over 10 µM.

**Q.** What about the IC50 (second compound 0.316 µM) of the same molecule?
**A.** The IC50 was over 10 µM.

**Q.** And the IC50 (second compound 1 µM)?
**A.** Its IC50 is over 10 µM.

**Q.** What about the IC50 (second compound 3.16 µM) of the same molecule?
**A.** Its IC50 is under 0.0316 µM.

**Q.** What about the IC50 (second compound 10 µM) of the same molecule?
**A.** Its IC50 is over 10 µM.

**Q.** And the viability, T/C [1]?
**A.** Its viability, T/C is 74.6%.

**Q.** And the viability, T/C [2]?
**A.** The viability, T/C was 47.4%.

**Q.** And the viability, T/C [3]?
**A.** Its viability, T/C is 48.1%.

**Q.** And the viability, T/C [4]?
**A.** Its viability, T/C is 48%.

**Q.** What about the viability, T/C [5] of the same molecule?
**A.** The viability, T/C was 87.5%.

**Q.** What about the viability, T/C [6] of the same molecule?
**A.** Its viability, T/C is 92%.

**Q.** And the viability, T/C [7]?
**A.** Its viability, T/C is 73.3%.

**Q.** And the viability, T/C [8]?
**A.** Its viability, T/C is 55.9%.

**Q.** And the viability, T/C [9]?
**A.** The viability, T/C was 42.1%.

**Q.** And the viability, T/C [10]?
**A.** Its viability, T/C is 62.2%.

**Q.** What about the viability, T/C [11] of the same molecule?
**A.** Its viability, T/C is 88%.

**Q.** And the viability, T/C [12]?
**A.** Its viability, T/C is 90.3%.

**Q.** What about the viability, T/C [13] of the same molecule?
**A.** Its viability, T/C is 85.4%.

**Q.** And the viability, T/C [14]?
**A.** Its viability, T/C is 52.6%.

**Q.** What about the viability, T/C [15] of the same molecule?
**A.** Its viability, T/C is 37.4%.

**Q.** What about the viability, T/C [16] of the same molecule?
**A.** Its viability, T/C is 79.1%.

**Q.** What about the viability, T/C [17] of the same molecule?
**A.** Its viability, T/C is 97.1%.

**Q.** And the viability, T/C [18]?
**A.** Its viability, T/C is 109%.

**Q.** What about the viability, T/C [19] of the same molecule?
**A.** Its viability, T/C is 70.4%.

**Q.** What about the viability, T/C [20] of the same molecule?
**A.** The viability, T/C was 39.1%.

**Q.** And the viability, T/C [21]?
**A.** The viability, T/C was 44.1%.

**Q.** And the viability, T/C [22]?
**A.** The viability, T/C was 79.9%.

**Q.** What about the viability, T/C [23] of the same molecule?
**A.** The viability, T/C was 98.2%.

**Q.** What about the viability, T/C [24] of the same molecule?
**A.** The viability, T/C was 114%.

**Q.** What about the viability, T/C [25] of the same molecule?
**A.** The viability, T/C was 51.7%.

**Q.** And the viability, T/C [26]?
**A.** The viability, T/C was 43.8%.

**Q.** What about the viability, T/C [27] of the same molecule?
**A.** The viability, T/C was 49.8%.

**Q.** What about the viability, T/C [28] of the same molecule?
**A.** Its viability, T/C is 82.9%.

**Q.** What about the viability, T/C [29] of the same molecule?
**A.** The viability, T/C was 90.8%.

**Q.** And the viability, T/C [30]?
**A.** The viability, T/C was 90.8%.

**Q.** What about the viability, T/C [31] of the same molecule?
**A.** The viability, T/C was 54.7%.

**Q.** And the viability, T/C [32]?
**A.** Its viability, T/C is 47.8%.

**Q.** And the viability, T/C [33]?
**A.** Its viability, T/C is 51.2%.

**Q.** What about the viability, T/C [34] of the same molecule?
**A.** The viability, T/C was 85.4%.

**Q.** And the viability, T/C [35]?
**A.** Its viability, T/C is 84.5%.

**Q.** And the viability, T/C [36]?
**A.** Its viability, T/C is 90.8%.

**Q.** For `CC1COCCN1c1cc(C2(S(C)(=N)=O)CC2)nc(-c2ccnc3[nH]ccc23)n1` (centres undefined) + Cc1[nH]c2ccc(F)cc2c1-c1nc2c3cccnc3c3ncccc3c2[nH]1, which IC50 (second compound 0.0316 µM) is on record?
**A.** Its IC50 is 3.01 µM.

**Q.** What about the IC50 (second compound 0.1 µM) of the same molecule?
**A.** Its IC50 is 2.35 µM.

**Q.** What about the IC50 (second compound 0.316 µM) of the same molecule?
**A.** Its IC50 is 5.49 µM.

**Q.** What about the IC50 (second compound 1 µM) of the same molecule?
**A.** Its IC50 is 3.47 µM.

**Q.** What about the IC50 (second compound 3.16 µM) of the same molecule?
**A.** The IC50 was 2.28 µM.

**Q.** What about the IC50 (second compound 10 µM) of the same molecule?
**A.** The IC50 was over 10 µM.

**Q.** And the viability, T/C [1]?
**A.** Its viability, T/C is 99.6%.

**Q.** And the viability, T/C [2]?
**A.** The viability, T/C was 84.9%.

**Q.** And the viability, T/C [3]?
**A.** The viability, T/C was 90.2%.

**Q.** And the viability, T/C [4]?
**A.** The viability, T/C was 62.4%.

**Q.** What about the viability, T/C [5] of the same molecule?
**A.** Its viability, T/C is 52%.

**Q.** What about the viability, T/C [6] of the same molecule?
**A.** Its viability, T/C is 41.5%.

**Q.** And the viability, T/C [7]?
**A.** The viability, T/C was 78.9%.

**Q.** What about the viability, T/C [8] of the same molecule?
**A.** Its viability, T/C is 83.8%.

**Q.** And the viability, T/C [9]?
**A.** The viability, T/C was 92.3%.

**Q.** And the viability, T/C [10]?
**A.** Its viability, T/C is 62.2%.

**Q.** And the viability, T/C [11]?
**A.** Its viability, T/C is 48.9%.

**Q.** And the viability, T/C [12]?
**A.** Its viability, T/C is 42.5%.

**Q.** What about the viability, T/C [13] of the same molecule?
**A.** The viability, T/C was 106%.

**Q.** And the viability, T/C [14]?
**A.** Its viability, T/C is 84.9%.

**Q.** And the viability, T/C [15]?
**A.** The viability, T/C was 88.2%.

**Q.** And the viability, T/C [16]?
**A.** Its viability, T/C is 72.6%.

**Q.** And the viability, T/C [17]?
**A.** The viability, T/C was 56.2%.

**Q.** And the viability, T/C [18]?
**A.** The viability, T/C was 41.7%.

**Q.** What about the viability, T/C [19] of the same molecule?
**A.** Its viability, T/C is 70.3%.

**Q.** What about the viability, T/C [20] of the same molecule?
**A.** Its viability, T/C is 90.4%.

**Q.** And the viability, T/C [21]?
**A.** Its viability, T/C is 78.8%.

**Q.** And the viability, T/C [22]?
**A.** Its viability, T/C is 66.7%.

**Q.** What about the viability, T/C [23] of the same molecule?
**A.** The viability, T/C was 51.4%.

**Q.** What about the viability, T/C [24] of the same molecule?
**A.** The viability, T/C was 45.2%.

**Q.** What about the viability, T/C [25] of the same molecule?
**A.** The viability, T/C was 69.4%.

**Q.** And the viability, T/C [26]?
**A.** The viability, T/C was 79.4%.

**Q.** And the viability, T/C [27]?
**A.** Its viability, T/C is 67.5%.

**Q.** What about the viability, T/C [28] of the same molecule?
**A.** Its viability, T/C is 57.3%.

**Q.** What about the viability, T/C [29] of the same molecule?
**A.** The viability, T/C was 48.4%.

**Q.** And the viability, T/C [30]?
**A.** Its viability, T/C is 40.2%.

**Q.** And the viability, T/C [31]?
**A.** The viability, T/C was 81.6%.

**Q.** And the viability, T/C [32]?
**A.** The viability, T/C was 63.7%.

**Q.** What about the viability, T/C [33] of the same molecule?
**A.** Its viability, T/C is 65.6%.

**Q.** What about the viability, T/C [34] of the same molecule?
**A.** Its viability, T/C is 50.4%.

**Q.** And the viability, T/C [35]?
**A.** The viability, T/C was 50.7%.

**Q.** What about the viability, T/C [36] of the same molecule?
**A.** The viability, T/C was 54.3%.
